Results: patent US11773078B2, “Furin inhibitors” (Glaxosmithkline Intellectual Property Development Limited, priority 2018, dated 2023)
Where a name gives a salt, the structure may show the parent alone.

How the values were obtained:
[1] = biological target: T1, Furin (108-574-Tev-Flag-His) enzyme (Homo sapiens, UniProt P09958); test: Furin enzyme assay; format: biochemical
T1 construct: Furin (108-574-Tev-Flag-His) enzyme was expressed and purified from CHO cells; TEV cleavage site (C); FLAG (C); His (C); made in house; host or cells: CHO cells
How it was run: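 Compounds ran as 11-point threefold dilutions (0.00017–10 μM final) against 40 pM furin, purified from CHO cells, for 2 h at room temperature. Buffer: 100 mM HEPES pH7.5 with 1 mM CaCl2 and 0.005% Triton X-100. Envision readout. Four-parameter curve gives pXC50.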

[2] = biological target: T2, furin (endogenous protease) in U20S cells (Homo sapiens, UniProt P09958); test: Furin cell-based assay (image-based, Golgi-targeted GFP with BMP10 furin/PCSK cleavage site); settings: 24-hour incubation, read-out: furin golgi cell pXC50 (converted);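 also: Read-out is mean GFP fluorescence of Golgi puncta per cell by high-content imaging, retained when furin inhibited, over an eleven-point 0.00017–10 µM series, four-parameter fit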
T2 construct: the endogenous protease cleaves GFP; endogenous in cells; host or cells: U2OS cells transduced with a BacMam reporter
T2 sequence (P09958 108-794): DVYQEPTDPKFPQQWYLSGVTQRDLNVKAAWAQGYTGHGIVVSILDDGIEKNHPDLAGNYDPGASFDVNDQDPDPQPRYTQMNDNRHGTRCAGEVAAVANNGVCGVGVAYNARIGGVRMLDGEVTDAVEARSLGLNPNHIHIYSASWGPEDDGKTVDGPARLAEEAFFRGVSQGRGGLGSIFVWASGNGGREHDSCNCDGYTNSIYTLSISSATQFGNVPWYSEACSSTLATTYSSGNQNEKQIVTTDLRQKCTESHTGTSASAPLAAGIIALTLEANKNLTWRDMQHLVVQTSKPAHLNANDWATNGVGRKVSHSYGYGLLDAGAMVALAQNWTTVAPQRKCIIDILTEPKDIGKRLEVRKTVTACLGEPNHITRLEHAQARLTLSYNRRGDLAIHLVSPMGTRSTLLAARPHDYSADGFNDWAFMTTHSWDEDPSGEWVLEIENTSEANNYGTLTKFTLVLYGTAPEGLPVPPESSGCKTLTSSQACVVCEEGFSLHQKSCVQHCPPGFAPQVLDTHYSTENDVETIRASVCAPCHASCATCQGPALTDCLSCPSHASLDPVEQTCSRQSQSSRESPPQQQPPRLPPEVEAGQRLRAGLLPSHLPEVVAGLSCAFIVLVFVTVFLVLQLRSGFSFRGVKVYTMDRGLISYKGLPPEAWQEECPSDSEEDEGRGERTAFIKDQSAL

T1 sequence (P09958 108-574): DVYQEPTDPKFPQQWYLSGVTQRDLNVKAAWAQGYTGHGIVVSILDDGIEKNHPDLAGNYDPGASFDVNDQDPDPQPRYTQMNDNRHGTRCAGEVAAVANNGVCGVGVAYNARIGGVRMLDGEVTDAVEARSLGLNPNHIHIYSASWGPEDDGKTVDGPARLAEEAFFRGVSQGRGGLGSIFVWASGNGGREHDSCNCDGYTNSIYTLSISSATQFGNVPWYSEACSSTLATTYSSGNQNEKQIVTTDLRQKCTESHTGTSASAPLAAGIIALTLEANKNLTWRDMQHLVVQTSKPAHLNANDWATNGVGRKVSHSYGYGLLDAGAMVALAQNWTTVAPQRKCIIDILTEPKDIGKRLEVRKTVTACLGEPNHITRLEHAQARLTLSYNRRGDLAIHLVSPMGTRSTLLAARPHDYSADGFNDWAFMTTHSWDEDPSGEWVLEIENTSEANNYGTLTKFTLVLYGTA

Row | SMILES | furin enzyme pIC50 [1] | EC50 [2] [nM] | IC50 ([1]; read-out: furin enzyme pIC50 (converted)) [nM]
1 | CC(C)N1CCN(c2cnc(Oc3cc(CN4CCC(CC(=O)O)CC4)cc(-c4cc(Cl)cc(Cl)c4)n3)cn2)CC1 [Example 347, 2-(1-((2-(3,5-dichlorophenyl)-6-((5-(4-isopropylpiperazin-1-yl)pyrazin-2-yl)oxy)pyridin-4-yl)methyl)piperidin-4-yl)acetic acid] | 8.5 | 15.8 | –
2 | O=C(O)CC1CCN(Cc2cc(Oc3cnc(N4CCN5CCC4C5)cn3)nc(-c3cc(Cl)cc(Cl)c3)c2)CC1 (stereo not drawn) [Example 348, 2-(1-((2-((5-(1,4-diazabicyclo[3.2.1]octan-4-yl)pyrazin-2-yl)oxy)-6-(3,5-dichlorophenyl)pyridin-4-yl)methyl)piperidin-4-yl)acetic acid] | 8.4 | 50.1 | –
3 | CC(O)CCN1CCN(c2cnc(Oc3cc(CN4CCC(CC(=O)O)CC4)cc(-c4cc(Cl)cc(Cl)c4)n3)cn2)CC1 (stereo not drawn) [Example 349, 2-(1-((2-(3,5-dichlorophenyl)-6-((5-(4-(3-hydroxybutyl)piperazin-1-yl)pyrazin-2-yl)oxy)pyridin-4-yl)methyl)piperidin-4-yl)acetic acid] | 8.6 | 10 | –
4 | CN1CCN(c2cnc(Oc3cc(CN4CCC(CCO)CC4)cc(-c4cc(Cl)cc(Cl)c4)n3)cn2)CC1 [Example 350, 2-(1-((2-(3,5-dichlorophenyl)-6-((5-(4-methylpiperazin-1-yl)pyrazin-2-yl)oxy)pyridin-4-yl)methyl)piperidin-4-yl)ethanol] | 8.6 | 1.26 | –
5 | CC(CC1CCN(Cc2cc(Oc3cnc(N4CCCN(C)CC4)cn3)nc(-c3cc(Cl)cc(Cl)c3)c2)CC1)C(=O)O (stereo not drawn) [Example 351, 3-(1-((2-(3,5-dichlorophenyl)-6-((5-(4-methyl-1,4-diazepan-1-yl)pyrazin-2-yl)oxy)pyridin-4-yl)methyl)piperidin-4-yl)-2-methylpropanoic acid] | 9.4 | 25.1 | –
6 | CN1C2CC1CN(c1cnc(Oc3cc(CN4CCC(CC(=O)O)CC4)cc(-c4cc(Cl)cc(Cl)c4)n3)cn1)C2 [Example 352, 2-(1-((2-(3,5-dichlorophenyl)-6-((5-(6-methyl-3,6-diazabicyclo[3.1.1]heptan-3-yl)pyrazin-2-yl)oxy)pyridin-4-yl)methyl)piperidin-4-yl)acetic acid] | 8.2 | 50.1 | –
7 | CN1CCN(c2cnc(Oc3cc(CN4CCC(OC5(C(=O)O)CC5)CC4)cc(-c4cc(Cl)cc(Cl)c4)n3)cn2)CC1 [Example 353, 1-((1-((2-(3,5-dichlorophenyl)-6-((5-(4-methylpiperazin-1-yl)pyrazin-2-yl)oxy)pyridin-4-yl)methyl)piperidin-4-yl)oxy)cyclopropanecarboxylic acid] | 8.1 | 25.1 | –
8 | CS(=O)(=O)CCCN1CCN(c2cnc(Oc3cc(CN4CCC(CC(=O)O)CC4)cc(-c4cc(Cl)cc(Cl)c4)n3)cn2)CC1 [Example 354, 2-(1-((2-(3,5-dichlorophenyl)-6-((5-(4-(3-(methylsulfonyl)propyl)piperazin-1-yl)pyrazin-2-yl)oxy)pyridin-4-yl)methyl)piperidin-4-yl)acetic acid] | 8.1 | 25.1 | –
9 | CCN1CCCN(c2ccc(Oc3cc(CN4CCC(CC(=O)O)CC4)cc(-c4cc(Cl)cc(Cl)c4)n3)nn2)CC1 [Example 355, 2-(1-((2-(3,5-dichlorophenyl)-6-((6-(4-ethyl-1,4-diazepan-1-yl)pyridazin-3-yl)oxy)pyridin-4-yl)methyl)piperidin-4-yl)acetic acid] | 8.6 | 10 | –
10 | CN1CCCN(c2ccc(Oc3cc(CN4CCC(CC(=O)O)CC4)cc(-c4cc(Cl)cc(Cl)c4)n3)nn2)CC1 [Example 356, 2-(1-((2-(3,5-dichlorophenyl)-6-((6-(4-methyl-1,4-diazepan-1-yl)pyridazin-3-yl)oxy)pyridin-4-yl)methyl)piperidin-4-yl)acetic acid] | 8.6 | 31.6 | –
11 | CN1C[C@@H]2C[C@H]1CN2c1ccc(Oc2cc(CN3CCC(CC(=O)O)CC3)cc(-c3cc(Cl)cc(Cl)c3)n2)nn1 [Example 357, 2-(1-((2-(3,5-dichlorophenyl)-6-((6-((1S,4S)-5-methyl-2,5-diazabicyclo[2.2.1]heptan-2-yl)pyridazin-3-yl)oxy)pyridin-4-yl)methyl)piperidin-4-yl)acetic acid] | 8.5 | 100 | –
12 | CCN1CCN(c2ccc(Oc3cc(CN4CCC(CC(=O)O)CC4)cc(-c4cc(Cl)cc(Cl)c4)n3)nn2)CC1 [Example 358, 2-(1-((2-(3,5-dichlorophenyl)-6-((6-(4-ethylpiperazin-1-yl)pyridazin-3-yl)oxy)pyridin-4-yl)methyl)piperidin-4-yl)acetic acid] | 9.1 | 20 | –
13 | CN1CCN(c2ccc(Oc3cc(CN4CCC(CC(=O)O)CC4)cc(-c4cc(Cl)cc(Cl)c4)n3)nn2)CC1 [Example 359, 2-(1-((2-(3,5-dichlorophenyl)-6-((6-(4-methylpiperazin-1-yl)pyridazin-3-yl)oxy)pyridin-4-yl)methyl)piperidin-4-yl)acetic acid] | 9 | 63.1 | –
14 | CN1CCN(c2ccc(Oc3cc(CN4CCC(CCO)CC4)cc(-c4cc(Cl)cc(Cl)c4)n3)nn2)CC1 [Example 360, 2-(1-((2-(3,5-dichlorophenyl)-6-((6-(4-methylpiperazin-1-yl)pyridazin-3-yl)oxy)pyridin-4-yl)methyl)piperidin-4-yl)ethanol] | 9 | 12.6 | –
15 | CN1CCN(c2ccc(Oc3cc(CN4CC[C@@H]5[C@H](CC4)[C@H]5C(=O)O)cc(-c4cc(Cl)cc(Cl)c4)n3)nn2)CC1 [Example 361, (1R,7S,8r)-4-((2-(3,5-dichlorophenyl)-6-((6-(4-methylpiperazin-1-yl)pyridazin-3-yl)oxy)pyridin-4-yl)methyl)-4-azabicyclo[5.1.0]octane-8-carboxylic acid] | 9 | 50.1 | –
16 | CN1CCCN(c2ccc(Oc3cc(CN4CC[C@@H]5[C@H](CC4)[C@H]5C(=O)O)cc(-c4cc(Cl)cc(Cl)c4)n3)nn2)CC1 [Example 362, (1R,7S,8r)-4-((2-(3,5-dichlorophenyl)-6-((6-(4-methyl-1,4-diazepan-1-yl)pyridazin-3-yl)oxy)pyridin-4-yl)methyl)-4-azabicyclo[5.1.0]octane-8-carboxylic acid] | – | 25.1 | 0.0316
17 | CC(=O)NCC1CCN(Cc2cc(Oc3ccc(N4CCN(CC(C)C(=O)O)CC4)nn3)nc(-c3cc(Cl)cc(Cl)c3)c2)CC1 (stereo not drawn) [Example 363, 3-(4-(6-((4-((4-(acetamidomethyl)piperidin-1-yl)methyl)-6-(3,5-dichlorophenyl)pyridin-2-yl)oxy)pyridazin-3-yl)piperazin-1-yl)-2-methylpropanoic acid] | 9.7 | 631 | –
18 | C[C@@H](CC1CCN(Cc2cc(Oc3ccc(N4CCN(C)CC4)nn3)nc(-c3cc(Cl)cc(Cl)c3)c2)CC1)C(=O)O [Example 365, (S)-3-(1-((2-(3,5-dichlorophenyl)-6-((6-(4-methylpiperazin-1-yl)pyridazin-3-yl)oxy)pyridin-4-yl)methyl)piperidin-4-yl)-2-methylpropanoic acid] | 9.9 | 126 | –
19 | CCN1C[C@@H]2C[C@H]1CN2c1ccc(Oc2cc(CN3CCC(CC(=O)O)CC3)cc(-c3cc(Cl)cc(Cl)c3)n2)nn1 [Example 366, 2-(1-((2-(3,5-dichlorophenyl)-6-((6-((1S,4S)-5-ethyl-2,5-diazabicyclo[2.2.1]heptan-2-yl)pyridazin-3-yl)oxy)pyridin-4-yl)methyl)piperidin-4-yl)acetic acid] | 8.8 | 31.6 | –
20 | CC(=O)N[C@H]1[C@@H]2CCN(Cc3cc(Oc4cnc(N5CCN(CCC(=O)O)CC5)nc4)nc(-c4cc(Cl)cc(Cl)c4)c3)CC[C@@H]21 [Example 367] | 10.1 | 2.51 | –
21 | COC(=O)C(C)CCN1CCN(c2ncc(Oc3cc(CN4CCC(CNC(C)=O)CC4)cc(-c4cc(Cl)cc(Cl)c4)n3)cn2)CC1 (stereo not drawn) [Example 368, methyl 4-(4-(5-((4-((4-(acetamidomethyl)piperidin-1-yl)methyl)-6-(3,5-dichlorophenyl)pyridin-2-yl)oxy)pyrimidin-2-yl)piperazin-1-yl)-2-methylbutanoate] | 8.3 | 3.98 | –
22 | CC(=O)NCC1CCN(Cc2cc(Oc3cnc(N4CCN(CCC(C)(C)C(=O)O)CC4)nc3)nc(-c3cc(Cl)cc(Cl)c3)c2)CC1 [Example 370, 4-(4-(5-((4-((4-(Acetamidomethyl)piperidin-1-yl)methyl)-6-(3,5-dichlorophenyl)pyridin-2-yl)oxy)pyrimidin-2-yl)piperazin-1-yl)-2,2-dimethylbutanoic acid, 4 hydrochloride] | 9.2 | 6.31 | –
23 | Cc1c(CN2CCC(CC(=O)O)CC2)cc(-c2cc(Cl)cc(Cl)c2)nc1Oc1ccc(N2CCN(C)CC2)nn1 [Example 371, 2-(1-((6-(3,5-Dichlorophenyl)-3-methyl-2-((6-(4-methylpiperazin-1-yl)pyridazin-3-yl)oxy)pyridin-4-yl)methyl)piperidin-4-yl)acetic acid] | 8.9 | 31.6 | –
24 | CC(=O)NCC1CCN(Cc2cc(Oc3cnc(N4CCN(C(C)CCS(C)(=O)=O)CC4)nc3)nc(-c3cc(F)cc(Cl)c3)c2)CC1 (stereo not drawn) [Example 372, N-((1-((2-(3-Chloro-5-fluorophenyl)-6-((2-(4-(4-(methylsulfonyl)butan-2-yl)piperazin-1-yl)pyrimidin-5-yl)oxy)pyridin-4-yl)methyl)piperidin-4-yl)methyl)acetamide] | 8.8 | 3.98 | –
